# Counter-ions that a name gives are not always drawn.
# Target: T1, KMO mouse enzyme (Mus musculus, UniProt Q91WN4)
# T1 construct: KMO enzyme prepared at Evotec from mouse liver (4-6 weeks old) via mitochondria isolation; from tissue; host or cells: mouse liver (4-6 weeks old), mitochondria isolation, prepared at Evotec
# Test: KMO mouse enzyme assay: L-Kynurenine hydroxylation to 3-Hydroxy-Kynurenine monitored by LC/MS (MRM)
# Type: biochemical
# Settings: compound at 10 μM, KMO enzyme from mouse liver mitochondria; for inhibition at 10 µM: read-out: INH.Mouse @ 10 μM
# Experimental: A method of monitoring L-Kynurenine (KYN) hydroxylation to form 3-Hydroxy-Kynurenine (3OH-KYN) by LC/MS is described. Product is quantified by multiple reaction monitoring (MRM method).
# • Compound: Stock concentrations: 10 mM in 100% DMSO • Enzyme: KMO enzyme prepared at Evotec from mouse liver (4-6 weeks old) via mitochondria isolation as described in the literature • Substrate: L-Kynurenine (Sigma: Cat# K3750, stock concentration: 10 mM in 100 mM potassium phosphate buffer, pH 7.4) Assay Conditions: […]
# T1 sequence (Q91WN4 whole entry): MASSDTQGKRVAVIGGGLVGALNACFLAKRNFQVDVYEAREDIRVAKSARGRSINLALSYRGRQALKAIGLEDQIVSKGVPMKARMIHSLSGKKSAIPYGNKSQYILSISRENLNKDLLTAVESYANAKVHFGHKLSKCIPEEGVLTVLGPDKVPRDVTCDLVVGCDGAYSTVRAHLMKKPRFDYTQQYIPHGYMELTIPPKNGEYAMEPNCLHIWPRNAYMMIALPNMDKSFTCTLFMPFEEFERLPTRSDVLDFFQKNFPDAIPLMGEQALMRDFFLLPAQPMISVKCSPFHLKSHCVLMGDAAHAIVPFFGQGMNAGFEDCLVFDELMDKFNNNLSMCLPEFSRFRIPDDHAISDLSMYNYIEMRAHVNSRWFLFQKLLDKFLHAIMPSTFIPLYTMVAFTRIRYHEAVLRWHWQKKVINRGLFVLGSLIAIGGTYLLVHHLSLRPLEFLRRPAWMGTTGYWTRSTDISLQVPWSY
Structure (SMILES),inhibition at 10 µM [%],INH.Mouse @ 10 μM
CC(=O)N1CCN(C(=O)c2cc(-c3cccc(Cl)c3)ncn2)CC1 [1-{4-[6-(3-Chloro-phenyl)-pyrimidine-4-carbonyl]-piperazin-1-yl}-ethanone],94.9,–
O=C(O)c1ccnc(-c2cccc(Cl)c2)c1 [2-(3-Chloro-phenyl)-isonicotinic acid hydrochloride salt],53.5,–
"O=C(Nc1ccccc1)c1cc(-c2ccc(Cl)c(Cl)c2)ccn1 [4-(3,4-Dichloro-phenyl)-pyridine-2-carboxylic acid phenylamide]",43.5,–
"COc1cncc(NC(=O)c2cc(-c3cc(Cl)cc(Cl)c3)ccn2)c1 [4-(3,5-Dichloro-phenyl)-pyridine-2-carboxylic acid (5-methoxy-pyridin-3-yl)-amide]",52.6,–
"Cl.O=C(O)c1cc(-c2cc(Cl)cc(Cl)c2)ccn1 [4-(3,5-Dichloro-phenyl)-pyridine-2-carboxylic acid hydrocloride salt]",–,76.6
"O=C(Nc1ccccc1)c1cc(-c2cc(Cl)cc(Cl)c2)ccn1 [4-(3,5-Dichloro-phenyl)-pyridine-2-carboxylic acid phenylamide]",59.7,–
COc1cncc(NC(=O)c2cc(-c3cccc(Cl)c3)ccn2)c1 [4-(3-Chloro-phenyl)-pyridine-2-carboxylic acid (5-methoxy-pyridin-3-yl)-amide],53.8,–
COC(=O)c1cc(-c2cccc(Cl)c2)ccn1 [4-(3-Chloro-phenyl)-pyridine-2-carboxylic acid methyl ester],100,–
Cc1ccc(NC(=O)c2cc(-c3cccc(Cl)c3)ccn2)cc1 [4-(3-Chloro-phenyl)-pyridine-2-carboxylic acid p-tolylamide],85.6,–
O=C(Nc1ccccc1)c1cc(-c2cccc(Cl)c2)ccn1 [4-(3-Chloro-phenyl)-pyridine-2-carboxylic acid phenylamide],68.4,–
O=C(Nc1cccnc1)c1cc(-c2cccc(Cl)c2)ccn1 [4-(3-Chloro-phenyl)-pyridine-2-carboxylic acid pyridin-3-ylamide],52.3,–
O=C(Nc1cncnc1)c1cc(-c2cccc(Cl)c2)ccn1 [4-(3-Chloro-phenyl)-pyridine-2-carboxylic acid pyrimidin-5-ylamide],60.8,–
O=C(O)c1cc(-c2cccc(Cl)c2)ccn1 [4-(3-Chloro-phenyl)-pyridine-2-carboxylic acid],100,–
O=C1CN(C(=O)c2cc(-c3cccc(Cl)c3)ncn2)CCN1 [4-[6-(3-Chloro-phenyl)-pyrimidine-4-carbonyl]-piperazin-2-one],100,–
"COC(=O)c1cc(-c2ccc(F)cc2F)ncn1 [6-(2,4-Difluoro-phenyl)-pyrimidine-4-carboxylic acid methyl ester]",100,–
O=C(O)c1cc(-c2cc(C(F)(F)F)ccc2F)ncn1 [6-(2-Fluoro-5-trifluoromethyl-phenyl)-pyrimidine-4-carboxylic acid],80.3,–
"COC(=O)c1cc(-c2ccc(Cl)c(Cl)c2)nc(C)n1 [6-(3,4-Dichloro-phenyl)-2-methyl-pyrimidine-4-carboxylic acid methyl ester]",95.5,–
"COC(=O)c1ncnc(-c2ccc(Cl)c(Cl)c2)c1F [6-(3,4-Dichloro-phenyl)-5-fluoro-pyrimidine-4-carboxylic acid methyl ester]",100,–
"Cn1cc(NC(=O)c2cc(-c3ccc(Cl)c(Cl)c3)ncn2)cn1 [6-(3,4-Dichloro-phenyl)-pyrimidine-4-carboxylic acid (1-methyl-1H-pyrazol-4-yl)-amide]",100,–
"Cc1ccc(NC(=O)c2cc(-c3ccc(Cl)c(Cl)c3)ncn2)c(C)n1 [6-(3,4-Dichloro-phenyl)-pyrimidine-4-carboxylic acid (2,6-dimethyl-pyridin-3-yl)-amide]",96.8,–
"Cc1ncccc1NC(=O)c1cc(-c2ccc(Cl)c(Cl)c2)ncn1 [6-(3,4-Dichloro-phenyl)-pyrimidine-4-carboxylic acid (2-methyl-pyridin-3-yl)-amide]",84.2,–
"Cc1ncc(NC(=O)c2cc(-c3ccc(Cl)c(Cl)c3)ncn2)cn1 [6-(3,4-Dichloro-phenyl)-pyrimidine-4-carboxylic acid (2-methyl-pyrimidin-5-yl)-amide]",85.6,–
"Cc1cc(NC(=O)c2cc(-c3ccc(Cl)c(Cl)c3)ncn2)on1 [6-(3,4-Dichloro-phenyl)-pyrimidine-4-carboxylic acid (3-methyl-isoxazol-5-yl)-amide]",100,–
"COc1cncc(NC(=O)c2cc(-c3ccc(Cl)c(Cl)c3)ncn2)c1 [6-(3,4-Dichloro-phenyl)-pyrimidine-4-carboxylic acid (5-methoxy-pyridin-3-yl)-amide]",100,–

Structure (SMILES),inhibition at 10 µM [%],INH.Mouse @ 10 μM
"Cc1nnc(NC(=O)c2cc(-c3ccc(Cl)c(Cl)c3)ncn2)o1 [6-(3,4-Dichloro-phenyl)-pyrimidine-4-carboxylic acid (5-methyl-[1,3,4]oxadiazol-2-yl)-amide]",100,–
"Cc1ccc(NC(=O)c2cc(-c3ccc(Cl)c(Cl)c3)ncn2)cn1.Cl [6-(3,4-Dichloro-phenyl)-pyrimidine-4-carboxylic acid (6-methyl-pyridin-3-yl)-amide hydrochloride salt]",–,94.0
"Cc1ccc(NC(=O)c2cc(-c3ccc(Cl)c(Cl)c3)ncn2)cn1 [6-(3,4-Dichloro-phenyl)-pyrimidine-4-carboxylic acid (6-methyl-pyridin-3-yl)-amide]",100,–
"O=C(NCc1ccncc1)c1cc(-c2ccc(Cl)c(Cl)c2)ncn1 [6-(3,4-Dichloro-phenyl)-pyrimidine-4-carboxylic acid (pyridin-4-ylmethyl)-amide]",95.5,–
"O=C(Nc1nncs1)c1cc(-c2ccc(Cl)c(Cl)c2)ncn1 [6-(3,4-Dichloro-phenyl)-pyrimidine-4-carboxylic acid [1,3,4]thiadiazol-2-ylamide]",100,–
"O=C(Nc1ccon1)c1cc(-c2ccc(Cl)c(Cl)c2)ncn1 [6-(3,4-Dichloro-phenyl)-pyrimidine-4-carboxylic acid isoxazol-3-ylamide]",100,–
"COC(=O)c1cc(-c2ccc(Cl)c(Cl)c2)ncn1 [6-(3,4-Dichloro-phenyl)-pyrimidine-4-carboxylic acid methyl ester]",101,–
"Cc1ccc(NC(=O)c2cc(-c3ccc(Cl)c(Cl)c3)ncn2)cc1 [6-(3,4-Dichloro-phenyl)-pyrimidine-4-carboxylic acid p-tolylamide]",100,–
"O=C(Nc1ccccn1)c1cc(-c2ccc(Cl)c(Cl)c2)ncn1 [6-(3,4-Dichloro-phenyl)-pyrimidine-4-carboxylic acid pyridin-2-ylamide]",100,–
"O=C(Nc1cccnc1)c1cc(-c2ccc(Cl)c(Cl)c2)ncn1 [6-(3,4-Dichloro-phenyl)-pyrimidine-4-carboxylic acid pyridin-3-ylamide]",83.5,–
"O=C(Nc1ccncc1)c1cc(-c2ccc(Cl)c(Cl)c2)ncn1 [6-(3,4-Dichloro-phenyl)-pyrimidine-4-carboxylic acid pyridin-4-ylamide]",90.1,–
"O=C(Nc1cncnc1)c1cc(-c2ccc(Cl)c(Cl)c2)ncn1 [6-(3,4-Dichloro-phenyl)-pyrimidine-4-carboxylic acid pyrimidin-5-ylamide]",95.5,–
"O=C(Nc1nccs1)c1cc(-c2ccc(Cl)c(Cl)c2)ncn1 [6-(3,4-Dichloro-phenyl)-pyrimidine-4-carboxylic acid thiazol-2-ylamide]",83.7,–
"COC(=O)c1cc(-c2ccc(F)c(F)c2)ncn1 [6-(3,4-Difluoro-phenyl)-pyrimidine-4-carboxylic acid methyl ester]",100,–
"O=C(Nc1cccnc1)c1cc(-c2ccc(F)c(F)c2)ncn1 [6-(3,4-Difluoro-phenyl)-pyrimidine-4-carboxylic acid pyridin-3-ylamide]",84.7,–
"O=C(Nc1cncnc1)c1cc(-c2ccc(F)c(F)c2)ncn1 [6-(3,4-Difluoro-phenyl)-pyrimidine-4-carboxylic acid pyrimidin-5-ylamide]",100,–
"COc1cncc(NC(=O)c2cc(-c3cc(Cl)cc(Cl)c3)ncn2)c1 [6-(3,5-Dichloro-phenyl)-pyrimidine-4-carboxylic acid (5-methoxy-pyridin-3-yl)-amide]",54.8,–
"COC(=O)c1cc(-c2cc(Cl)cc(Cl)c2)ncn1 [6-(3,5-Dichloro-phenyl)-pyrimidine-4-carboxylic acid methyl ester]",101,–
"O=C(Nc1ccccc1)c1cc(-c2cc(Cl)cc(Cl)c2)ncn1 [6-(3,5-Dichloro-phenyl)-pyrimidine-4-carboxylic acid phenylamide]",77.6,–
"O=C(Nc1cccnc1)c1cc(-c2cc(Cl)cc(Cl)c2)ncn1 [6-(3,5-Dichloro-phenyl)-pyrimidine-4-carboxylic acid pyridin-3-ylamide]",72.2,–
COC(=O)c1cc(-c2cccc(Cl)c2F)ncn1 [6-(3-Chloro-2-fluoro-phenyl)-pyrimidine-4-carboxylic acid methyl ester],100,–
COC(=O)c1cc(-c2ccc(F)c(Cl)c2)ncn1 [6-(3-Chloro-4-fluoro-phenyl)-pyrimidine-4-carboxylic acid methyl ester],100,–
COC(=O)c1cc(-c2ccc(OC)c(Cl)c2)ncn1 [6-(3-Chloro-4-methoxy-phenyl)-pyrimidine-4-carboxylic acid methyl ester],100,–
COC(=O)c1cc(-c2ccc(C(F)(F)F)c(Cl)c2)ncn1 [6-(3-Chloro-4-trifluoromethyl-phenyl)-pyrimidine-4-carboxylic acid methyl ester],100,–

# Source: patent publication US9145373B2, “Certain kynurenine-3-monooxygenase inhibitors, pharmaceutical compositions, and methods of use thereof” (CHDI FOUNDATION, INC., priority 2008, dated 2015)
